In brackets after ≈: the same amount, converted by molar mass. Read-outs that look alike come from different tables or passages of the source.
How the values were obtained:
[1] = in vivo; settings: dog, po, 5 mg/kg
Description: (§1) Blood samples were collected at different time points to determine the drug concentration in the dog plasma after administration of the test substance and relevant pharmacokinetic parameters were calculated.
(§2) The specific preparation method was as follows: 10mg of the test sample was taken, 0.5% MC and 1% Tween 80 was added, the resulting mixture was vortex mixed to obtain a solution with a concentration of 1mg/mL. The solution was freshly prepared before use, mixed well through vortex, and set aside for later use.
(§3) Healthy male SD rats or dogs were used for this study. All animals were fasted before administration and resumed feeding 4 hours after administration.
(§4) (Time points ≤ 2 hours: ± 2 min; other points: ± 15 min.)
(§5) About 0.1 mL of blood was collected via the jugular vein from each animal, using EDTA or heparin sodium as anticoagulants. After collected, the blood sample was placed on ice and centrifuged to separate the plasma (centrifugation conditions: 10000 rpm, 5 minutes, and 4 °C).
(§6) The plasma samples were analyzed by LC-MS/MS by the analysis department of the experimental institution.

[2] = Pharmacokinetics in dogs after a single dose by gavage; settings: for in vivo exposure levels: dog pharmacokinetic data, compared with free base crystal form I; for AUC0-last / AUCINF / Cmax / T1/2 / Tmax: dogs, single gavage dose 5mpk, 1mg/ml in 0.5%MC+1% tween 80 (Uniform suspension), 5 mg/kg
Description: as §1, §2, §3, §4, §5, §6

[3] = Pharmacokinetics in rats after a single dose by gavage; settings: for in vivo exposure levels: rat pharmacokinetic data, compared with free base crystal form I; for AUC0-last / AUCINF / Cmax / T1/2 / Tmax: SD rats, single gavage dose 10mpk, 1mg/ml in 0.5% MC+1% tween 80 (Uniform suspension), 10 mg/kg
Description: (§7) Blood samples were collected at different time points to determine the drug concentration in the rat plasma after administration of the test substance and relevant pharmacokinetic parameters were calculated.
as §2, §3, §5, §6

[4] = in vivo; settings: rat, po, 10 mg/kg
Description: as §7, §2, §3, §5, §6

[5] = Solid-state stability, 7 days at 60 °C/closed and 40 °C/75% RH (HPLC purity, XRPD); type: physicochemical; settings: for Purity (Area%) 40 °C/ 75%RH / Purity (Area%) 60 °C/ Closed / XRPD 40 °C/ 75%RH / XRPD 60 °C/ Closed: 7 days; for Purity (Area%) 40 °C/ 75%RH / Purity (Area%) 60 °C/ Closed / Initial purity (Area%): HPLC; for Initial purity (Area%): before storage; for XRPD 40 °C/ 75%RH: crystal form after 40 °C/75% RH; for XRPD 60 °C/ Closed: crystal form after 60 °C/closed
Description: HPLC analysis was performed using Agilent HPLC 1260 series instruments. Table 37 HPLC Method for Solubility and Stability Tests

[6] = system: tumor patients with RET fusion and mutation; settings: cited from earlier work
[7] = physchem
[8] = Solubility test in biological media and water at 37 °C (HPLC; XRPD of residue); settings: for Solubility (µg/mL) 2 h / Solubility (µg/mL) 0.5 h / Solubility (µg/mL) 24 h: calculated using free base; for Solubility (µg/mL) 2 h: 120 min; for Solubility (µg/mL) 24 h: 1440 min
[9] = Evaluation of amorphous free base: suspension stirred in solvent at room temperature for 2 days; type: physicochemical; settings: for Result (solid form obtained): suspension stirred at room temperature for 2 days
Description: 100 mg of the amorphous free base sample obtained in the present invention was weighed and a solvent was added to form a suspension. The mixture was stirred at room temperature for 2 days, and the results are as follows: […]

[10] = Rough solubility in 17 solvents by visual inspection at room temperature; settings: for solubility: DMSO
[11] = physchem; remark: listed apart in the source
[12] = FaSSIF (pH=6.49), LOQ: ~1.0 µg/mL
[13] = crystal form after 24 h in FaSSIF (pH=6.49)
[14] = crystal form after 24 h in FeSSIF (pH=5.00)
[15] = crystal form after 24 h in SGF (pH=1.19)
[16] = crystal form after 24 h in Water (pH=5.45)

Compound | in vivo exposure levels [2] | AUC0-last [2] [ng·h/mL] | AUCINF [2] [ng·h/mL] | Cmax [2] [ng/mL] | T1/2 [2] [h] | in vivo exposure levels [3] | Purity (Area%) 40 °C/ 75%RH [5] [Area%] | Purity (Area%) 60 °C/ Closed [5] [Area%] | Initial purity (Area%) [5] [Area%] | XRPD 40 °C/ 75%RH [5] | XRPD 60 °C/ Closed [5] | Solubility (µg/mL) 2 h [8, 12] [µg/mL] | XRPD (24 h) [8, 13] | XRPD (24 h) [8, 14] | XRPD (24 h) [8, 15] | AUC0-last [3] [ng·h/mL] | AUCINF [3] [ng·h/mL] | Cmax [3] [ng/mL] | T1/2 [3] [h] | Tmax [3] [h] | other results
CCn1ncc2c(Nc3cc(C)[nH]n3)nc([C@H]3CC[C@](OC)(C(=O)N[C@@H](C)c4cnc(-n5cc(F)cn5)cn4)CC3)nc21 [Free base crystal form III] | higher than those of free base crystal form I | 763.5 | 776.0 | 151.5 | 4.275 | higher than those of free base crystal form I | 99.253 | 99.212 | 99.316 | Unchanged | Unchanged | – | – | – | – | – | – | – | – | – | Tmax [1]: 2 h; AUC(0-inf) [4]: 1260 ng·h/mL; AUC(0-t) [4]: 1250 ng·h/mL; Cmax [4]: 153 ng/mL; Tmax [4]: 6 h; half-life [4]: 191 min
CO[C@]1(C(=O)N[C@@H](C)c2ccc(-n3cc(F)cn3)nc2)CC[C@H](c2nc(C)cc(Nc3cc(C)[nH]n3)n2)CC1 [BLU-667] | – | – | – | – | – | – | – | – | – | – | – | – | – | – | – | – | – | – | – | – | ORR ([6]; patients with medullary thyroid carcinoma): 40%; ORR ([6]; patients with non-small cell lung cancer): 50%; overall remission rate (ORR) ([6]; tumor patients with RET fusion and mutation): 45%
CCn1ncc2c(Nc3cc(C)[nH]n3)nc([C@H]3CC[C@](OC)(C(=O)N[C@@H](C)c4cnc(-n5cc(F)cn5)cn4)CC3)nc21 [Fumarate crystal form I] | higher than those of free base crystal form I | 3807.0 | 4179.0 | 617 | 6.87 | higher than those of free base crystal form I | 97.914 | 98.119 | 98.062 | Unchanged | Unchanged | 5.950 | Almost amorphous | Unchanged | Unchanged | 1781.00 | 1790.00 | 247.00 | 2.77 | 5.00 | solubility at 24 h ([7]; fassif, pH 6.49): 22.7 µg/mL; solubility at 0.5 h ([7]; fessif, pH 5): 84.2 µg/mL; solubility at 2 h ([7]; fessif, pH 5): 28.5 µg/mL; solubility at 24 h ([7]; fessif, pH 5): 20.9 µg/mL; solubility at 0.5 h ([7]; sgf): 210 µg/mL; solubility at 0.5 h ([7]; sgf, pH 1.19): 210 µg/mL; solubility at 2 h ([7]; sgf, pH 1.19): 204 µg/mL; solubility at 24 h ([7]; sgf, pH 1.19): 78.1 µg/mL; XRPD (24 h) [8, 16]: Unchanged; Tmax [2]: 4.0 h
CCn1ncc2c(Nc3cc(C)[nH]n3)nc([C@H]3CC[C@](OC)(C(=O)N[C@@H](C)c4cnc(-n5cc(F)cn5)cn4)CC3)nc21 [Malate crystal form I] | higher than those of free base crystal form I | – | – | – | – | higher than those of free base crystal form I | 98.742 | 98.753 | 98.772 | Unchanged | Unchanged | 2.650 | Changed | Almost amorphous | Changed | 1209.00 | 1217.00 | 177.00 | 2.31 | 3.00 | Solubility (µg/mL) 0.5 h ([8]; FeSSIF (pH=5.00), 30 min): 58.771 µg/mL; Solubility (µg/mL) 2 h ([8]; FeSSIF (pH=5.00)): 19.818 µg/mL; Solubility (µg/mL) 24 h ([8]; FeSSIF (pH=5.00)): 16.658 µg/mL; Solubility (µg/mL) 0.5 h ([8]; SGF (pH=1.19), 30 min): 204.753 µg/mL; Solubility (µg/mL) 2 h ([8]; SGF (pH=1.19)): 113.155 µg/mL; Solubility (µg/mL) 24 h ([8]; SGF (pH=1.19)): 79.977 µg/mL; maximum solubility ([8]; SGF medium at 0.5 hours, 30 min): 0.20 mg/mL; XRPD (24 h) [8, 16]: Unchanged
CCn1ncc2c(Nc3cc(C)[nH]n3)nc([C@H]3CC[C@](OC)(C(=O)N[C@@H](C)c4cnc(-n5cc(F)cn5)cn4)CC3)nc21 [amorphous free base] | – | – | – | – | – | – | – | – | – | – | – | – | – | – | – | – | – | – | – | – | Result (solid form obtained) ([9]; Acetone): Free base crystal form III; Result (solid form obtained) ([9]; Methanol): Free base crystal form I; stability of the solid form in the solvent ([9]; suspension in methanol or acetone, room temperature, 2 days): unstable and easily transformed into other crystal forms
CCn1ncc2c(Nc3cc(C)[nH]n3)nc([C@H]3CC[C@](OC)(C(=O)N[C@@H](C)c4cnc(-n5cc(F)cn5)cn4)CC3)nc21 [Free base crystal form I] | – | 673.5 | 684.0 | 111.7 | 2.835 | – | – | – | – | – | – | – | – | – | – | 1172.00 | 1197.00 | 158.00 | 2.69 | 4.67 | solubility [10]: > 40 mg/mL; solubility ([10]; listed as free base crystal form I): >166.7 mg/mL; Solubility (mg/mL) ([10]; THF): 41.7~50.0 mg/mL; Tmax [2]: 3.0 h; solubility ([11]; 2-me-thf): 11100 to 12500 µg/mL (≈ 18.9 to 21.2 mM); solubility ([11]; acetone): 7100 to 8300 µg/mL (≈ 12.1 to 14.1 mM); solubility ([11]; dcm): 4600 to 5000 µg/mL (≈ 7.81 to 8.49 mM); solubility ([11]; ea): 2200 to 2300 µg/mL (≈ 3.74 to 3.91 mM); solubility ([11]; etoh): < 600 µg/mL; solubility ([11]; hept): < 600 µg/mL; solubility ([11]; ipa): < 600 µg/mL; solubility ([11]; ipac): 1500 to 1600 µg/mL (≈ 2.55 to 2.72 mM); solubility ([11]; mek): 6300 to 7100 µg/mL (≈ 10.7 to 12.1 mM); solubility ([11]; meoh): ~1200 µg/mL (≈ 2.04 mM); solubility ([11]; mtbe): < 600 µg/mL; solubility ([11]; n-buoh): < 600 µg/mL; solubility ([11]; thf): > 40000 µg/mL; solubility ([11]; tol): < 600 µg/mL; solubility ([11]; water): < 600 µg/mL
